In US12544375B2, “Small molecule therapeutic for parkinson's disease paired with a biomarker of therapeutic activity” (The Board of Trustees of the Leland Stanford Junior …, priority 2019, dated 2026):

Tested on: iPSC-derived neurons
Assay: Mitochondrial motility and clearance in axons of iPSC-derived neurons, live imaging
Type: cell-based, human
Details: 5 μM for 24 hrs
Procedure: FIG. 3A-FIG. 3D. Miro1 Reducer Rescues Parkinson's Neurodegeneration. (FIG. 3A) Fibroblasts were treated, lysed, and blotted as indicated. Band intensities are normalized to those of ATP5β from the same blots and compared to “Healthy-2, no treatment”. n=4. (FIG. 3B-FIG. 3C) iPSC-derived neurons were treated as indicated and immunostained with anti-TH (FIG. 3B) or stained with PI and Dapi (FIG. 3C). Both Antimycin A and Miro1 Reducer were dissolved in ethanol. Neurons were pretreated with Miro1 Reducer 24 hrs before the application of Antimycin A for another 6 hrs. The same volume of ethanol was applied at the same time in negative controls. (FIG. 3B) The density of TH-positive neurons is calculated in each condition under 20×, from 10 fields each experiment, 3-4 experiments. […] (FIG. 3C) The percentage of PI-positive cells out of total cells (Dapi-positive) is calculated. n=20 fields each experiment, 4 experiments. […] Graphs of Mean±S.E.M show the percent of time each mitochondrion is in motion (red and blue, compared to “Wild-type-I, before treatment”), and the mitochondrial intensity normalized to that of the same axonal region at “0 min” and expressed as a fraction of the mean of “Wild-type-I, 0 min”. n=33-77 mitochondria from 5-8 axons from 5-8 separate transfections. […]
Live Image Acquisition and Quantification. […]

O=C(Nc1ccc(Nc2cc(-n3ccnc3)ncn2)cc1)Nc1cccc(F)c1 [Miro1 Reducer]
basal motility of polarized, healthy mitochondria: did not affect | delayed arrest and clearance of depolarized mitochondria (then 100 μM Antimycin A, PD patient neurons): rescued the delayed arrest and clearance of depolarized mitochondria
